Experimental data taken from patent US20260250318A1, “COMPOSITIONS AND METHODS FOR CROSSING THE BLOOD BRAIN BARRIER” (VOYAGER THERAPEUTICS, INC., priority 2022, published 2026).

Experiments:
brain = test: Matured TTM-001 and TTM-002 variants, NGS enrichment in mouse brain; type: in vivo, mice; details: relative to AAV9 control
[1] = system: brains, heart, liver, muscle, and DRG of the NHPs; test: Maturation of TTM-001 and TTM-002 capsids, NGS enrichment in NHP tissues; type: in vivo; details: relative to AAV9 control
Method in brief: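 Variants carry mutations within and flanking the loop IV peptide insert: positions 450–466 were triplet-randomized, while positions 449–466 received low-frequency point mutations. The combined pool went into two NHPs, and each peptide was scored by NGS enrichment ratio against AAV9.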

[2] = NGS fold-enrichment of matured AAV capsid variants, NHP brain, RNA
[3] = NGS fold-enrichment, mouse brain
[4] = NGS fold-enrichment of RNA, NHP brain
[5] = NGS fold-enrichment, NHP liver DNA
[6] = NGS fold-enrichment, NHP liver RNA
[7] = NGS fold-enrichment, NHP muscle
[8] = NGS fold-enrichment, brain of mice
[9] = NGS fold-enrichment, DRG of NHPs
[10] = NGS fold-enrichment, RNA, brain of NHPs
[11] = NGS fold-enrichment, heart of NHPs
[12] = NGS fold-enrichment, liver DNA of NHPs
[13] = NGS fold-enrichment, liver RNA of NHPs
[14] = NGS fold-enrichment, muscle of NHPs

| Sequence | Fold Enrichment relative to AAV9, Brain (Mouse) (brain; mouse brain) [fold] | Fold Enrichment relative to AAV9, Brain (NHP) [1, 2] [fold] | Fold Enrichment relative to AAV9, DRG (NHP) ([1]; NHP DRG) [fold] | Fold Enrichment relative to AAV9, Heart (NHP) ([1]; NHP heart) [fold] | Fold Enrichment relative to AAV9, Liver DNA (NHP) ([1]; NHP liver, DNA) [fold] | Fold Enrichment relative to AAV9, Liver RNA (NHP) ([1]; NHP liver, RNA) [fold] | Fold Enrichment relative to AAV9, Muscle (NHP) ([1]; NHP muscle) [fold] | Fold Enrichment relative to AAV9, Brain (Mouse) (brain; [8]) [fold] | Fold Enrichment relative to AAV9, DRG (NHP) [1, 9] [fold] | Fold Enrichment relative to AAV9, Brain (NHP) [1, 10] [fold] | Fold Enrichment relative to AAV9, Heart (NHP) [1, 11] [fold] | Fold Enrichment relative to AAV9, Liver DNA (NHP) [1, 12] [fold] | Fold Enrichment relative to AAV9, Liver RNA (NHP) [1, 13] [fold] | Fold Enrichment relative to AAV9, Muscle (NHP) [1, 14] [fold] | other results |
| --- | --- | --- | --- | --- | --- | --- | --- | --- | --- | --- | --- | --- | --- | --- | --- |
| KTINGSGSPHSKVPNLQT | 50.474 | 57.046 | 0.000 | 0.029 | 0.082 | 0.459 | 0.000 |  |  |  |  |  |  |  |  |
| KTINGSGSPHSYHVNQQT | 179.489 | 50.486 | 0.000 | 0.056 | 0.275 | 0.528 | 0.059 |  |  |  |  |  |  |  |  |
| KTINGSGSPHTKAQNPPT |  |  |  |  |  |  |  |  |  |  |  |  |  |  | Fold Enrichment relative to AAV9, Brain (Mouse) (brain; [3]): 34.425 fold; Fold Enrichment relative to AAV9, Brain (NHP) [1, 4]: 147.061 fold; Fold Enrichment relative to AAV9, DRG (NHP) ([1]; NGS fold-enrichment, NHP DRG): 0.000 fold; Fold Enrichment relative to AAV9, Heart (NHP) ([1]; NGS fold-enrichment, NHP heart): 0.727 fold; Fold Enrichment relative to AAV9, Liver DNA (NHP) [1, 5]: 0.000 fold; Fold Enrichment relative to AAV9, Liver RNA (NHP) [1, 6]: 0.000 fold; Fold Enrichment relative to AAV9, Muscle (NHP) [1, 7]: 0.000 fold |
| KTINGSGSPHTKAQNPQS |  |  |  |  |  |  |  | 62.508 | 0.000 | 72.594 | 0.000 | 0.130 | 0.000 | 0.000 |  |
| KTINGSGSSHSKAQNQQT | 67.731 | 54.292 | 1.709 | 1.870 | 0.458 | 1.075 | 1.287 |  |  |  |  |  |  |  |  |
| KTINGSVSPHGKAQNQLT (peptide inserted in AAV capsid) |  |  |  |  |  |  |  | 51.358 | 0.000 | 73.525 | 0.061 | 0.053 | 0.000 | 0.067 |  |
| KTINGTGSPHSKAPNQLT | 86.939 | 58.738 | 0.000 | 0.000 | 0.035 | 0.229 | 0.000 |  |  |  |  |  |  |  |  |
| KTINGTGSPHSKAQNHQI |  |  |  |  |  |  |  | 54.281 | 0.171 | 77.089 | 0.000 | 0.166 | 0.000 | 0.000 | Fold Enrichment relative to AAV9, Brain (Mouse) (brain; [3]): 54.281 fold; Fold Enrichment relative to AAV9, Brain (NHP) [1, 4]: 77.089 fold; Fold Enrichment relative to AAV9, DRG (NHP) ([1]; NGS fold-enrichment, NHP DRG): 0.171 fold; Fold Enrichment relative to AAV9, Heart (NHP) ([1]; NGS fold-enrichment, NHP heart): 0.000 fold; Fold Enrichment relative to AAV9, Liver DNA (NHP) [1, 5]: 0.166 fold; Fold Enrichment relative to AAV9, Liver RNA (NHP) [1, 6]: 0.000 fold; Fold Enrichment relative to AAV9, Muscle (NHP) [1, 7]: 0.000 fold |
| KTINGTGSPHSKAQNQQM |  |  |  |  |  |  |  | 62.376 | 0.000 | 62.151 | 0.000 | 0.000 | 0.000 | 0.000 |  |
| KTINGYDSPHKSGQYQHT |  |  |  |  |  |  |  |  |  |  |  |  |  |  | Fold Enrichment relative to AAV9, Brain (Mouse) (brain; [3]): 10.524 fold; Fold Enrichment relative to AAV9, Brain (NHP) [1, 4]: 81.534 fold; Fold Enrichment relative to AAV9, DRG (NHP) ([1]; NGS fold-enrichment, NHP DRG): 0.000 fold; Fold Enrichment relative to AAV9, Heart (NHP) ([1]; NGS fold-enrichment, NHP heart): 0.036 fold; Fold Enrichment relative to AAV9, Liver DNA (NHP) [1, 5]: 0.000 fold; Fold Enrichment relative to AAV9, Liver RNA (NHP) [1, 6]: 0.000 fold; Fold Enrichment relative to AAV9, Muscle (NHP) [1, 7]: 0.000 fold |
| KTINKEGSPHSKAQNQQT | 64.520 | 53.006 | 0.000 | 0.029 | 0.111 | 0.177 | 0.000 |  |  |  |  |  |  |  |  |
| KTINVSGSPHSKAQGQQT | 87.211 | 55.870 | 0.000 | 0.191 | 0.040 | 0.592 | 0.000 |  |  |  |  |  |  |  |  |
| KTIPAIGSPHSKAQNQQT | 51.949 | 52.346 | 0.000 | 0.009 | 0.134 | 0.034 | 0.000 |  |  |  |  |  |  |  |  |
| KTIPIDGSPHSKAQNQQT |  |  |  |  |  |  |  | 76.826 | 0.000 | 64.421 | 0.047 | 0.936 | 0.234 | 0.000 |  |
| KTIPKNGSPHSKAQNQQT | 77.458 | 53.824 | 0.000 | 0.032 | 0.178 | 0.115 | 0.000 |  |  |  |  |  |  |  |  |
| KTIPMEGSPHSKAQNQQT | 89.951 | 56.560 | 0.000 | 0.000 | 0.371 | 1.824 | 0.000 |  |  |  |  |  |  |  |  |
| KTIQDGGSPHSKAQNQQT |  |  |  |  |  |  |  | 87.522 | 0.000 | 59.865 | 0.000 | 0.789 | 1.435 | 0.116 |  |
| KTIRDAGSPHSKAQNQQT |  |  |  |  |  |  |  | 113.179 | 0.000 | 60.346 | 0.000 | 0.251 | 0.141 | 0.000 |  |
| KTIRENGSPHSKAQNQQT | 95.931 | 55.605 | 0.000 | 0.000 | 0.257 | 0.131 | 0.016 |  |  |  |  |  |  |  |  |
| KTISGGGSPHSKAQNQQN |  |  |  |  |  |  |  | 87.761 | 0.000 | 59.801 | 0.000 | 0.039 | 0.722 | 0.000 |  |
| KTISGHDSPHKTGHNQQT |  |  |  |  |  |  |  |  |  |  |  |  |  |  | Fold Enrichment relative to AAV9, Brain (Mouse) (brain; [3]): 8.823 fold; Fold Enrichment relative to AAV9, Brain (NHP) [1, 4]: 92.490 fold; Fold Enrichment relative to AAV9, DRG (NHP) ([1]; NGS fold-enrichment, NHP DRG): 0.000 fold; Fold Enrichment relative to AAV9, Heart (NHP) ([1]; NGS fold-enrichment, NHP heart): 0.233 fold; Fold Enrichment relative to AAV9, Liver DNA (NHP) [1, 5]: 0.000 fold; Fold Enrichment relative to AAV9, Liver RNA (NHP) [1, 6]: 0.730 fold; Fold Enrichment relative to AAV9, Muscle (NHP) [1, 7]: 0.057 fold |
| KTISGSGSPHSKAQYQHT |  |  |  |  |  |  |  | 59.822 | 0.000 | 66.739 | 0.000 | 0.191 | 0.000 | 0.000 |  |
